Results from US9302999B2, “Substituted triazoles as herbicides” (E. I. DU PONT DE NEMOURS AND COMPANY, priority 2012, dated 2016).
Like-named read-outs stand apart in the source and are kept apart here.

Tests used:
Assay type in all cases: in vivo
[1] = test system: ducksalad (Heteranthera limosa); test: Test C flooded paddy test: ducksalad; details: scale 0 to 100 (0 no effect, 100 complete control); for pest or weed control at 125 g/ha / pest or weed control at 250 g/ha / pest or weed control at 31 g/ha / pest or weed control at 62 g/ha: Heteranthera limosa, read-out: Plant response rating, Ducksalad
Outline: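 Visual ratings from 0 (no effect) to 100 (complete control), made against untreated controls 13 to 15 days after treatment, express plant response. Compounds went directly into paddy water over 2-leaf stage plants in pots flooded to 3 cm.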

[2] = test system: velvetleaf (Abutilon theophrasti); test: Test C pre-/postemergence: velvetleaf
Description: (§1) Seeds of plant species selected from blackgrass (Alopecurus myosuroides), bromegrass, downy (downy bromegrass, Bromus tectorum), foxtail, green (green foxtail, Setaria viridis), ryegrass, Italian (Italian ryegrass, Lolium multiflorum), winter wheat (Triticum aestivum), wild oat (Avena fatua), galium (catchweed bedstraw, Galium aparine), bermudagrass (Cynodon dactylon), surinam grass (Brachiaria decumbens), cocklebur (common cocklebur, Xanthium strumarium), corn (Zea mays), large crabgrass (Digitaria sanguinalis), woolly cupgrass (Eriochloa villosa), foxtail, giant (giant foxtail, Setaria faberii), goosegrass (Eleusine indica), johnsongrass (Sorghum halepense), kochia (Kochia scoparia), lambsquarters (Chenopodium album), morningglory (Ipomoea coccinea), nightshade (eastern black nightshade, Solanum ptycanthum), nutsedge, yellow (yellow nutsedge, Cyperus esculentus), pigweed (Amaranthus retroflexus), ragweed (common ragweed, Ambrosia elation), soybean (Glycine max), common (oilseed) sunflower (Helianthus annuus), Russian thistle (Salsola kali) and velvetleaf (Abutilon theophrasti) were planted into a blend of loam soil and sand and treated preemergence with test chemicals formulated in a non-phytotoxic solvent mixture which included a surfactant.
(§2) At the same time, plants selected from these crop and weed species and also barley (winter barley, Hordeum vulgare), canarygrass (Phalaris minor), chickweed (common chickweed, Stellaria media) windgrass (Apera spica-venti) and deadnettle (henbit deadnettle, Lamium amplexicaule) were planted in pots containing Redi-Earth® planting medium (Scotts Company, 14111 Scottslawn Road, Marysville, Ohio 43041) comprising spaghnum peat moss, vermiculite, wetting agent and starter nutrients and treated with postemergence applications of test chemicals formulated in the same manner. Plants ranged in height from 2 to 18 cm (1- to 4-leaf stage) for postemergence treatments.
(§3) Treated plants and controls were maintained in a greenhouse for 13 to 15 days, after which time all species were compared to controls and visually evaluated. Plant response ratings, summarized in Table C, are based on a scale of 0 to 100 where 0 is no effect and 100 is complete control. A dash (-) response means no test result.

[3] = test system: galium (catchweed bedstraw, Galium aparine); test: Test C pre-/postemergence: galium
Description: as §1, §2, §3

[4] = test system: cocklebur (common cocklebur, Xanthium strumarium); test: Test C pre-/postemergence: cocklebur
Description: as §1, §2, §3

[5] = Flood (flooded paddy test), 125 g ai/ha, visual rating after 13 to 15 days
[6] = Flood (flooded paddy test), 250 g ai/ha, visual rating after 13 to 15 days
[7] = Postemergence, 16 g ai/ha, scale 0 to 100, 0 no effect, 100 complete control
[8] = Postemergence, 31 g ai/ha, scale 0 to 100 (0 no effect, 100 complete control)
[9] = Postemergence, 62 g ai/ha, scale 0 to 100 (0 no effect, 100 complete control)
[10] = Postemergence, 125 g ai/ha, scale 0 to 100, 0 no effect, 100 complete control
[11] = Postemergence, 250 g ai/ha, scale 0 to 100
[12] = Preemergence, 31 g ai/ha, scale of 0 to 100, 0 is no effect, 100 is complete control
[13] = Preemergence, 62 g ai/ha, scale of 0 to 100, 0 is no effect, 100 is complete control
[14] = Preemergence, 125 g ai/ha, scale 0 to 100, 0 no effect, 100 complete control
[15] = Preemergence, 250 g ai/ha, scale 0 to 100, 0 no effect, 100 complete control
[16] = Flood (flooded paddy test), 62 g ai/ha, visual rating after 13 to 15 days

Row | SMILES | pest or weed control at 125 g/ha [1, 5] [%] | pest or weed control at 250 g/ha [1, 6] [%] | pest or weed control at 31 g/ha ([1]; Flood, 31 g ai/ha) [%] | Plant response rating, Velvetleaf [2, 8] | Plant response rating, Velvetleaf [2, 9] | Plant response rating, Velvetleaf [2, 10] | Plant response rating, Galium [3, 8] | Plant response rating, Galium [3, 9] | Plant response rating, Galium [3, 10] | Plant response rating, Cocklebur [4, 8] | Plant response rating, Cocklebur [4, 9] | Plant response rating, Cocklebur [4, 10] | pest or weed control at 62 g/ha [1, 16] [%] | other results
1 | CCc1nn(-c2ccc(C(F)(F)F)cc2)nc1Oc1cccc(OC(F)(F)F)c1 [Compound 125, 4-ethyl-5-[3-(trifluoromethoxy)phenoxy]-2-[4-(trifluoromethyl)phenyl]-2H-1,2,3-triazole] | 75 | 90 | 0 | – | – | – | – | – | – | – | – | – | – | pest or weed control at 62 g/ha ([1]; Flood, 62 g ai/ha): 0%
2 | Cc1nn(-c2ccc(C(F)(F)F)cc2)nc1Cc1cccc(C(F)(F)F)c1 [Compound 124] | – | – | – | 45 | 50 | 55 | 70 | 80 | 85 | 15 | 20 | 55 | – | Plant response rating, Velvetleaf [2, 7]: 45; Plant response rating, Ducksalad [1, 5]: 90; Plant response rating, Ducksalad [1, 6]: 90; Plant response rating, Ducksalad ([1]; Flood, 31 g ai/ha): 20; Plant response rating, Ducksalad ([1]; Flood, 62 g ai/ha): 90; Plant response rating, Galium [3, 7]: 70; Plant response rating, Cocklebur [4, 7]: 10
3 | Cc1nn(-c2ccc(C(F)(F)F)cc2)nc1Cc1ccnc(C(F)(F)F)c1 [Compound 47, 4-[[5-methyl-2-[4-(trifluoromethyl)phenyl]-2H-1,2,3-triazol-4-yl]methyl]-2-(trifluoromethyl)pyridine] | 90 | 90 | 0 | 65 | 70 | 80 | 80 | 80 | 95 | 10 | 65 | 70 | 90 | Plant response rating, Velvetleaf [2, 11]: 90; Plant response rating, Velvetleaf [2, 12]: 45; Plant response rating, Velvetleaf [2, 13]: 60; Plant response rating, Velvetleaf [2, 14]: 90; Plant response rating, Velvetleaf [2, 15]: 100; Plant response rating, Galium [3, 11]: 98; Plant response rating, Galium [3, 12]: 85; Plant response rating, Galium [3, 13]: 100; Plant response rating, Galium [3, 14]: 100; Plant response rating, Galium [3, 15]: 100; Plant response rating, Cocklebur [4, 11]: 70; Plant response rating, Cocklebur [4, 12]: 0; Plant response rating, Cocklebur ([4]; Preemergence, 62 g ai/ha, scale 0 to 100, 0 no effect, 100 complete control): 0; Plant response rating, Cocklebur [4, 14]: 0; Plant response rating, Cocklebur [4, 15]: 5
4 | COc1nn(-c2ccc(C(F)(F)F)cc2)nc1Cn1ccc(C(F)(F)F)n1 [Compound 17, 4-methoxy-2-[4-(trifluoromethyl)phenyl]-5-[[3-(trifluoromethyl)-1H-pyrazol-1-yl]methyl]-2H-1,2,3-triazole] | 0 | 20 | 0 | – | – | – | – | – | – | – | – | – | 0 | –
